According to US5646246A, “Isolation and structural elucidation of the human cancer cell growth inhibitory cyclic peptides phakellistatin 4, 5, 6, 7, 8 and 9” (Arizona Board of Regents acting on behalf of Arizona State …, priority 1994, dated 1997):
Converted amounts (≈) assume the structure as drawn. Where a SMILES comes first, the peptide text is derived from it.

How the values were obtained:
Type in all cases: cell-based
[1] = test system: murine lymphocytic leukemia P388; assay: in vitro murine P388 lymphocytic leukemia cell growth inhibition; details: dose reducing percent growth to 50%
Text: The following measures are used to express drug activity by giving the drug dose which reduces cell growth to a specified percentage of growth:
(§1) ED50 (P388) and GI50 (HTCL) are the drug doses needed to reduce the percent growth to 50%. There is no mathematical difference between ED50 and GI50, which are both calculated using the same formula. The only difference is historical usage. TGI, (Total Growth Inhibition), is the drug dose needed to yield zero percent growth, i.e., just as many cells at the end of the experiment as were present in the beginning. Whether just as many cells were killed as were produced (steady state), or no growth occurred (total inhibition), cannot be distinguished.
(§2) Each drug is tested at five (5) doses: 100--10--1--0.1--0.01 μg/ml. Percent Growths are calculated for each dose. The two (or three) doses with growth values above, below, (or near to) 50% growth are used to calculate the ED50 /GI50 using a linear regression formula. The log of the dose is used during the regression computation. If no dose yields a growth value under 50%, the results are expressed as: ED50 >(highest dose). If no dose yields growth higher than 50% growth, then ED50 <(lowest dose). Similar calculations are performed for the TGI at 0% growth, and at -50% growth for the LC50.
(§3) At the start of an experiment, cells from the in vitro cell cultures are inoculated into the appropriate tubes or microtiter plates. One set of control tubes/plates is immediately counted to determine the number of cells at the start of the experiment. This is the "baseline count", or "Tzero reading". At the end of the experiment (48 hours later), a second set of control tubes/plates is analyzed to determine the "Control Growth" value. The growth (or death) of cells relative to the initial quantity of cells is used to define the "Percent of Growth".

OVCAR-3 = assay: human cancer cell line growth inhibition, ovarian OVCAR-3
Text: as §1
(§4) Each drug is tested at five (5) doses: 100--10--1--0.1--0.01 μg/ml. Percent Growths are calculated for each dose. The two (or three) doses with growth values above, below, (or near to) 50% growth are used to calculate the ED50 /GI50 using a linear regression formula. […]
as §3

SK-MEL-5 = assay: human cancer cell line growth inhibition, melanoma SK-MEL-5
Text: as §1, §4, §3

[2] = test system: NCI human cancer cell line panel; assay: NCI human cancer cell line panel, in vitro primary screen; details: for in vitro growth inhibitory activity against human cancer cell lines: result in words
Text: Current research in the control of cancer in the U.S. is coordinated by the National Cancer Institute (NCI). To determine whether a substance has anti-cancer properties, the NCI has established a systematic protocol. This protocol, which involves the testing of a substance against a standard cell line panel containing 60 human tumor cell lines, has been verified and is accepted in scientific circles. The protocol, and the established statistical means for analyzing the results obtained by the standardized testing are fully described in the literature. See: Boyd, Dr. Michael R., Principles & Practice of Oncology, PPO Updates, Volume 3, Number 10, October 1989, for a general overview of the testing protocol; Monks, Anne et al., "Feasibility of a High-Flux Anticancer Drug Screen Using a Diverse Panel of Cultured Human Tumor Cell Lines", 83 J. Nat. Cancer Inst., No. 11, 757 (1991); and Paull, K. D., "Display and Analysis of Patterns of Differential Activity of Drugs Against Human Tumor Cell Lines; Development of Mean Graph and COMPARE Algorithm", 81 Journal of the National Cancer Institute Reports, No. 14, 1088, (1989), for a description of the methods of statistical analysis. Each of these references are incorporated herein by this reference thereto.
as §1
LC50, (Lethal Concentration 50%), is the drug concentration which reduces growth to -50%, i.e., removes half of the cells originally present at the beginning of the experiment.
as §2, §3

KM20L2 = assay: human cancer cell line growth inhibition, colon KM20L2
Text: as §1, §4, §3

NCI-H460 = assay: human cancer cell line growth inhibition, lung NCI-H460
Text: as §1, §4, §3

SF-295 = assay: human cancer cell line growth inhibition, CNS SF-295
Text: as §1, §4, §3

A498 = assay: human cancer cell line growth inhibition, renal A498
Text: as §1, §4, §3

| Compound | ED50 (P388) [1] [µg/mL] | GI50 ovarian OVCAR-3 (OVCAR-3) [µg/mL] | GI50 melanoma SK-MEL-5 (SK-MEL-5) [µg/mL] | in vitro growth inhibitory activity against human cancer cell lines [2] | GI50 colon KM20L2 (KM20L2) [µg/mL] | GI50 lung NCI-H460 (NCI-H460) [µg/mL] | GI50 CNS SF-295 (SF-295) [µg/mL] | GI50 renal A498 (A498) [µg/mL] | GI50 ([2]; NCI human cancer cell line panel, quadruplicate experiments) [nM] |
| --- | --- | --- | --- | --- | --- | --- | --- | --- | --- |
| CC[C@H](C)[C@@H]1NC(=O)[C@@H]2CCCN2C(=O)[C@H](CC(C)C)NC(=O)C(Cc2c[nH]c3ccccc23)NC(=O)[C@@H]2CCCN2C(=O)[C@H](Cc2ccccc2)NC(=O)[C@@H]2CCCN2C1=O (stereo partly drawn) [phakellistatin 6, cyclo-(Pro-Trp-Leu-Pro-Ile-Pro-Phe)] | 0.18 (≈ 0.212 µM) | 0.025 (≈ 0.0294 µM) | 0.032 (≈ 0.0376 µM) | growth inhibitory activity was also demonstrated | 0.021 (≈ 0.0247 µM) | 0.019 (≈ 0.0223 µM) | 0.041 (≈ 0.0482 µM) | 0.078 (≈ 0.0917 µM) |  |
| CC[C@H](C)[C@@H]1NC(=O)[C@@H]2CCCN2C(=O)[C@@H]2CCCN2C(=O)[C@H]([C@@H](C)CC)NC(=O)[C@H](Cc2ccc(O)cc2)NC(=O)[C@@H]2CCCN2C(=O)[C@@H]2CCCN2C(=O)[C@H](CC(C)C)NC(=O)[C@H](C)NC(=O)[C@H](Cc2ccccc2)NC1=O [phakellistatin 7, cyclo-(Pro-Pro-Ile-Phe-Ala-Leu-Pro-Pro-Tyr-Ile)] (cyclo(ALPPYIPPIF)) | 3.0 (≈ 2.7 µM) |  |  | growth inhibitory activity was also demonstrated |  |  |  |  |  |
| CC[C@H](C)[C@@H]1NC(=O)[C@@H]2CCCN2C(=O)[C@@H]2CCCN2C(=O)[C@H](C(C)C)NC(=O)[C@H](Cc2ccc(O)cc2)NC(=O)[C@@H]2CCCN2C(=O)[C@@H]2CCCN2C(=O)[C@H](CC(C)C)NC(=O)[C@H](C(C)C)NC(=O)[C@H](Cc2ccccc2)NC1=O [phakellistatin 9, cyclo-(Pro-Pro-Ile-Phe-Val-Leu-Pro-Pro-Tyr-Val)] (cyclo(FVLPPYVPPI)) | 1.7 (≈ 1.51 µM) |  |  | growth inhibitory activity was also demonstrated |  |  |  |  |  |
| CC[C@H](C)[C@@H]1NC(=O)[C@@H]2CCCN2C(=O)[C@@H]2CCCN2C(=O)[C@H]([C@@H](C)CC)NC(=O)[C@H](Cc2ccc(O)cc2)NC(=O)[C@@H]2CCCN2C(=O)[C@@H]2CCCN2C(=O)[C@H](CC(C)C)NC(=O)[C@H](C(C)C)NC(=O)[C@H](Cc2ccccc2)NC1=O [phakellistatin 8, cyclo-(Pro-Pro-Ile-Phe-Val-Leu-Pro-Pro-Tyr-Ile)] (cyclo(FVLPPYIPPI)) | 4.1 (≈ 3.6 µM) |  |  | growth inhibitory activity was also demonstrated |  |  |  |  |  |
| CC[C@H](C)[C@@H]1NC(=O)[C@H](C)NC(=O)[C@H](CCSC)NC(=O)[C@H](C)NC(=O)[C@@H](CC(N)=O)NC(=O)[C@H](Cc2ccccc2)NC(=O)[C@@H]2CCCN2C1=O [phakellistatin 5, cyclo-(Pro-Phe-Asn-Ala-Met-Ala-Ile)] | 0.23 (≈ 0.309 µM) |  |  | growth inhibitory activity was also demonstrated |  |  |  |  | ~3000 |
